From US20200206313A1, “POLYPEPTIDE NANOTUBES LINKED BY DISULFIDE BONDS FOR TARGETED DELIVERY OF CYTOTOXIC THERAPIES” (MUSC FOUNDATION FOR RESEARCH DEVELOPMENT, priority 2018, published 2020)
No end group written: not given here. *: point of attachment. FITC = O=C1OC2(c3ccc(O)cc3Oc3cc(O)ccc32)c2ccc(NC(=S)*)cc21

Experiments:
HeLa = assay: Cytotoxicity, MTT assay, HeLa; assay type: cell-based
Experimental: (§1) HeLa (Cervical cancer cell line), MDA-MB-231 (Breast cancer cell line) and HaCaT (Human keratinocytes) cells were maintained in growth medium consisting of Dulbecco's Modified Eagle's Medium (DMEM, Gibco, India) with high glucose, supplemented with 10% FBS and 1% penicillin-streptomycin. The cells were grown in […] flasks (BD Falcon) and passaged every three days. All culture reagents were purchased from Thermofisher scientific. The serum free media was used to eliminate any confounding effects from serum adsorption to the nanotubes. Within the time-period (5 h) of the experiment, no adverse cellular responses were observed from serum deprivation or serum shock after a transfer from serum containing growth media.
(§2) Cytotoxicity of nanotube, DOX loaded nanotube and free DOX were assessed in HeLa and MDAMB231 using the MTT assay. About 5×10^3 cells were seeded per well of a 96-well plate and allowed to attach during incubation for 24 h in a humidified incubator at 37° C. Cells were treated with different concentrations of nanotubes, free DOX or DOX loaded nanotubes ranging from 0.2 to 6.4 μg/ml. Four hours before termination of the assay, MTT was added. Mitochondria of viable cells […] MTT to produce purple Formazan crystals. […] The absorbance of each well was measured at 570 nm using a microplate reader (Synergy HT, BioTek Instrument Inc., Winooski Vt.). […]

MDAMB231 = assay: Cytotoxicity, MTT assay, MDAMB231; assay type: cell-based
Experimental: as §1, §2

Zeta potential = assay type: physicochemical
Experimental: The Nano tubular size distribution was measured on Zetasizer (Malvern, Southborough, Mass., USA). The changes in the surface charges of free nanotube and nanotube-DOX were probed via the zeta potential using Nano ZS (Malvern, Southborough, Mass., USA).

[1] = Stability of nanotubes by fluorescence emission spectra at various pH and temperature; assay type: physicochemical
Experimental: Fluorescence spectra were acquired on a Perkin Elmer Fluorescence spectrometer. Spectra were recorded for protein samples prepared in 10 mM Tris buffer at pH 7 or 12 (i.e., neutral and basic pH) and 10 mM HEPES buffer at pH 2 (acidic pH) and data were recorded using a 1.0 cm path length quartz cuvette. An excitation wavelength of 280 nm (tyrosine excitation) was used having slit width 2.5 nm and emission spectra were collected from 300 nm to 550 nm with λmax at 340 nm.

[2] = Stability of mature nanotubes by AFM; assay type: physicochemical; conditions: ~9-months old nanotubes
Experimental: AFM experiments were performed on a NX-10 AFM (Park systems) system in the non-contact mode. The protein sample was dropped onto freshly cleaved mica and incubated for 20 min. After rinsing with Milli-Q water two times, the sample was dried in a desiccator. […] The tip radius was <10 nm. Images were obtained at a scan rate of 1 Hz.

[3] = tested on: integrin-induced phosphorylation of FAK at tyrosine 397; assay: Integrin signaling: Western blot of FAK phosphorylation at tyrosine 397 in HeLa cells; assay type: cell-based; conditions: 500 ng/ml, 1 h
Experimental: Cells were maintained as mentioned above in 65 mm dishes. HeLa cells were serum starved for 24 h to remove the effect of serum on cells. Cells were treated with nanotubes or full length IGFBP-2 (1-289) for 1 h in serum-free DMEM. An additional set of cells was treated for 1 h with nanotubes or full length IGFBP-2 without the integrin pathway inhibitor (RGDS) under the same conditions. For control treatments, cells were pretreated with 10 mM RGDS peptide for 1 h. Later, cells were washed once with PBS and lysed in detergent lysis buffer (150 mM NaCl (Sigma Aldrich, USA), 0.1% SDS (Calbiochem, Germany), 0.5% NP40 (Amresco, USA), 1 mM EDTA (pH 8) and protease inhibitor cocktail, PIC (Calbiochem) with gentle vortexing at 4° C. for 20 min and centrifuged at 10,000×g for 10 min. The soluble fraction was separated and, protein estimation was done by Bradford assay. 30 μg of total protein was dissolved in SDS sample buffer (240 mM Tris-HCl (pH 6.8), 8% (w/v) SDS, 0.1% bromophenol blue and 40% (v/v) glycerol), heated at 96° C. for 10 min and centrifuged briefly. Samples were resolved on 12.5% SDS-polyacrylamide gels in Tris-glycine electrophoresis buffer (pH 8.3) containing 25 mM Tris base, 250 mM glycine and 0.1% SDS at 100 Volts for 2 h. […]

[4] = tested on: integrin receptors on the cell surface (HeLa cells); assay: Confocal imaging of nanotube-FITC interaction with HeLa cells; assay type: cell-based; conditions: for change of cell-associated signal after integrin inhibitor RGDS: 1 h with 25 μg/ml inhibitor after 4 h incubation
Experimental: (§3) For microscopic analysis, cells were grown on sterile coverslips with all treatments performed in DMEM without serum for 1 h or 4 h. Treatment was terminated by removing medium and cells washing cells twice with PBS followed by nuclear staining with DAPI (4′,6-diamidino-2-phenylindole) for 10 min at room temperature. Cells were then washed with DPBS and excess buffer was removed. Coverslips were then treated with Antifade (Thermo Fisher Scientific India Private Ltd.) and sealed to a sterile glass slide and analyzed by confocal microscopy (LSM 510 Meta equipped with an Airyscan module, Zeiss, GmbH, Germany).

HeLa cells [5] = assay: Cellular uptake of DOX by FACS, HeLa; assay type: cell-based; conditions: percentage population, 0.4 μg/ml, the sentence does not name the cell line (HeLa assumed)
Experimental: Fluorescence-activated cell sorting (FACS) was used to quantify the cellular uptake of free Doxorubicin and that released from the Nanotube-DOX conjugates exposed to HeLa and HaCaT cells. The cells were treated with free DOX and Nanotube-DOX for 0.5, 1, 2 and 4 h using concentrations corresponding to their IC50 values. The cells were washed with DPBS to remove the unassimilated DOX and then trypsinized. The cell suspension was then centrifuged, and the pellet was re-suspended in 300 μl of DPBS with 0.1% of FBS. The DOX uptake was estimated by quantifying the cell populations using FACS employing Cell Quest software (using a FACSCalibur instrument, BD Biosciences, San Jose Calif.).

[6] = In vitro DOX release by dialysis method; assay type: physicochemical; conditions: physiological pH 7.4, 37° C., free DOX versus nanotube-DOX
Experimental: In-vitro drug release experiments were conducted using the dialysis method. The Nanotube-DOX conjugate was dialyzed against medium under different conditions: pH 5, pH 7.4, pH 7.4 with addition of 10 mM GSH, pH 5+10 mM GSH, pH 7.5+10 mM GSH+Enzyme (trypsin) and pH 5+10 mM GSH+trypsin. GSH was used to stimulate redox conditions and trypsin was used to investigate the effect of a non-specific enzyme on nanotube drug carrying ability. As a control free DOX was dialyzed against the same medium at physiological pH (7.4). All dialysis experiments were performed using a dialysis kit having a molecular mass cutoff of 1 kDa. Samples were dialyzed against the DMEM medium without phenol red (Thermofisher scientific) containing 1% P/S (Penicillin-Streptomycin, Cat no, India), 10% FBS (Fetal bovine serum, RM10432, Himedia, India) separately, with gentle and constant stirring at 37° C. At specific time points, aliquots of the medium were collected and absorbance at 495 nm was measured to quantify the release of DOX.

HeLa cells [7] = assay: Confocal visualization of cellular uptake of DOX in HeLa cells; assay type: cell-based; conditions: 0.4 μg/ml, 1 h and 4 h
Experimental: as §3

Question: With “nanotube: Self-assembled disulfide-linked nanotube of polypeptide hIGFBP-2 249-289 (R281C), SEQ ID NO: 1, with RGD motif (GPLGSPGIRGSCVNPNTGKLIQGAPTIRGDPECHLFYNEQQEACGVHTQRMT; not fully specified (bridges); also: self-assembled nanotube, subunits linked by intermolecular disulfides (Cys12, Cys33, Cys44))” as the compound, how does the “cytotoxicity of nanotube alone” value (HeLa; after 48 h) read?
Answer: did not cause any appreciable cytotoxicity

Question: What about the “cytotoxicity of nanotube alone” value (MDAMB231; MDAMB231, after 48 h) of the same compound?
Answer: did not cause any appreciable cytotoxicity

Question: And the zeta potential (Zeta potential)?
Answer: −21.4 mV

Question: And the “stability at different pH” value ([1]; pH 2, 7 and 12, fluorescence spectra)?
Answer: stable at all the three pH

Question: And the “stability at high temperature” value ([1]; pH 7, 90° C., fluorescence spectra)?
Answer: intact

Question: And the “morphological characteristics on storage” value [2]?
Answer: intact

Question: What about the “pFAK induction in presence of RGDS inhibitor” value ([3]; RGDS pre-treatment) of the same compound?
Answer: compromised

Question: What about the “intensity of pFAK” value ([3]; absence of inhibitor) of the same compound?
Answer: higher compared to control cells

Question: Which “change of cell-associated signal after integrin inhibitor RGDS” value [4] does the source give for “Fluorescein isothiocyanate [free FITC, reference compound]” here?
Answer: does not show a significant decrease

Question: With `COc1cccc2c1C(=O)c1c(O)c3c(c(O)c1C2=O)C[C@@](O)(C(=O)CO)C[C@@H]3O[C@H]1C[C@H](N)[C@H](O)[C@H](C)O1.Cl` [free DOX, Doxorubicin hydrochloride] as the compound, how does the cells killed (HeLa; 5 μg/ml, 48 h) read?
Answer: ~70%

Question: What about the cells killed (MDAMB231; MDAMB231, 5 μg/ml, 48 h) of the same compound?
Answer: ~70%

Question: And the “increase in Dox uptake from 2 h to 4 h” value (HeLa cells [5])?
Answer: more than 5 fold

Question: What about the “release of DOX into the medium” value [6] of the same compound?
Answer: faster than that of DOX loaded on the nanotube

Question: And the “intracellular localization of drug” value (HeLa cells [7])?
Answer: major accumulation is seen within nuclei

Question: Which “internalization / cellular distribution” value ([4]; 360 ng/ml, 4 h, serum free medium) does the source give for “nanotube-FITC (GPLGSPGIRGSCVNPNTGK(FITC)LIQGAPTIRGDPECHLFYNEQQEACGVHTQRMT; not fully specified (bridges); also: self-assembled nanotube, subunits linked by intermolecular cysteine disulfides)” here?
Answer: no significant internalization

Question: And the “change of cell-associated signal after integrin inhibitor RGDS” value [4]?
Answer: prominent loss of nanotube-FITC intensity
